Reference: patent US20140038181A1, “CHEMICALLY SUBSTITUTED THERMOSENSITIVE PROBES AND COFACTORS FOR HOT START LIGATION” (TRILINK BIOTECHNOLOGIES, priority 2011, published 2014)
In the oligonucleotide strings, read from the 5' end, every base follows the letter of its sugar. An asterisk marks phosphorothioate; unmarked linkages are phosphodiester. Other units and linkages are bracketed, terminal groups are in braces. A string of capitals states the bases alone. [OXT] = OXT-substituted phosphotriester internucleotide linkage; d = 2'-deoxy (DNA)

Legend:
T4 DNA ligase = target: T1, T4 DNA ligase (Enterobacteria phage T4, UniProt P00970); format: biochemical, bacteriophage T4
T1 construct: purchased New England Biolabs
T1 sequence (P00970 whole entry, looked up): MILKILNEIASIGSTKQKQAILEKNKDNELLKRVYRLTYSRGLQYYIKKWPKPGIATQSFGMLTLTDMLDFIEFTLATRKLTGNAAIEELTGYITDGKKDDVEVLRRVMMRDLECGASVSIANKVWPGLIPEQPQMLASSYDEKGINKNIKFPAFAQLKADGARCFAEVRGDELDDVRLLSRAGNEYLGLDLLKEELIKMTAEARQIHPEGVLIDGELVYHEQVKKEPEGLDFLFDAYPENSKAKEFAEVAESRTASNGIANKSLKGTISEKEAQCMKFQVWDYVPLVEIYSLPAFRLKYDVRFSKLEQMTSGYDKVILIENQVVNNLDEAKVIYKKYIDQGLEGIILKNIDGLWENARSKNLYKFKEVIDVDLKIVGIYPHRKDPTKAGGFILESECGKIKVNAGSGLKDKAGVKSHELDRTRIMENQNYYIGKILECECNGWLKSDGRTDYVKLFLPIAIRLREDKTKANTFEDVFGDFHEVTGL

[1] = Thermal conversion of 2′,3′-substituted ATP to unsubstituted ATP in ligase buffer at 95° C. (HPLC); format: physicochemical; settings: 1 mM 2′,3′-substituted ATP
Experimental: The reactions were monitored by analysis of the aliquot of incubated mixture by reverse-phase and anion-exchange HPLC.

[2] = system: complementary DNA target sequence; test: UV-melting temperature of complexes of acceptor probes with complementary DNA target sequence; format: physicochemical; settings: 2 μM oligonucleotides; for Tm: NaCl 137 mM, KCl 2.7 mM, phosphate buffer pH 7.4, 260 nm; for ΔTm (PDE - PTE): versus unsubstituted acceptor probe, pH 7.4
Tth DNA ligase = Tth DNA ligase (Thermus thermophilus, UniProt P26996); test: Ligase reaction with OXT-SAP and unsubstituted NAD+ cofactor on matched and mismatched DNA template, PAGE analysis; format: biochemical
Tth DNA ligase, sequence (P26996 whole entry): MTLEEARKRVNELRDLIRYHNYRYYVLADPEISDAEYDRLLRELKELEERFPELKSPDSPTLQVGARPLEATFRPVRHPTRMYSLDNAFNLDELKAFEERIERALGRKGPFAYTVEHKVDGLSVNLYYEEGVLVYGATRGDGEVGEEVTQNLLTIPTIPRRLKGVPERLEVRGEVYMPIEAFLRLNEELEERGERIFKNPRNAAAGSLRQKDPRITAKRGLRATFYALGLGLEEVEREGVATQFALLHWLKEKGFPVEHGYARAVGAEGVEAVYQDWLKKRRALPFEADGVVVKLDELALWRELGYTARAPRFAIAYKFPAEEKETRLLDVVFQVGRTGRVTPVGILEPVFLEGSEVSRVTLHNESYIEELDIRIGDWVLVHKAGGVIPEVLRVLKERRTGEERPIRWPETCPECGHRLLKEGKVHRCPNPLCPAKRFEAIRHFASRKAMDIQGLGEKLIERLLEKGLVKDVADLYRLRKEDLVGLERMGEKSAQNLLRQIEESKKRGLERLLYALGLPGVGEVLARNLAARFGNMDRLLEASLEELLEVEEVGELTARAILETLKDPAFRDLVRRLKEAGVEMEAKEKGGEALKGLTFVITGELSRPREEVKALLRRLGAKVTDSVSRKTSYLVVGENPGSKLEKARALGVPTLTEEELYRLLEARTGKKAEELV
Experimental: The ability of Tth DNA ligase to join an OXT-substituted acceptor and donor probes was assessed on a matched and mismatched DNA template in the presence of NAD+ cofactor (see Table 3 for the sequences employed). Each 20 μL reaction was performed in ligase buffer containing 50 mM Tris-HCl (pH 7.5), 10 mM MgCl2, 10 mM dithiothreitol, 25 μg/ml bovine serum albumin and 1 mM NAD+. The OXT-SAP, unsubstituted donor probe and DNA template were at equimolar 0.1 μM concentration. To prevent premature uncontrollable cleavage of the OXT groups from OXT-SAP, the preparation of the ligation mixture was performed in three steps.
First, a binary template-donor complex was prepared by mixing the DNA template and donor strands in ligation buffer, heating the mixture at 95° C. for 2 min, slowly cooling to 4° C. over 15 min, and keeping mixture at 4° C. for 1 hour.
Second, the OXT-SAP was added to the mixture and allowed to stay at 4° C. for 12 hours.
Third, a solutions of NAD+ in ligation buffer was added and ligation was initiated by adding 2 units of Tth DNA ligase to reaction mixture. Ligation proceeded at room temperature for 1 hr and analyzed by PAGE on TBE-Urea denaturing 15% gel (FIG. 12).

Nc1ncnc2c1ncn2[C@@H]1O[C@H](COP(=O)(O)OP(=O)(O)OP(=O)(O)O)[C@@H](O)[C@H]1O [unsubstituted ATP, ATP]
formation of ligation product (T4 DNA ligase): ample formation of 80(+)-mer ligation product

Nc1ncnc2c1ncn2[C@@H]1O[C@H](COP(=O)(O)OP(=O)(O)OP(=O)(O)O)[C@@H](OC2CCCO2)[C@H]1OC1CCCO1 (stereo partly shown) [—O(THF), 2′,3′-O-bis-tetrahydrofuranyl-adenosine-5′triphosphates]
Concentration of unsubstituted ATP ([1]; ligase buffer pH 7.5, 5 min): 2.8 µM | Concentration of unsubstituted ATP ([1]; ligase buffer pH 7.5, 10 min): 4.6 µM | Concentration of unsubstituted ATP ([1]; ligase buffer pH 7.5, 20 min): 17.3 µM | Concentration of unsubstituted ATP ([1]; ligase buffer pH 7.5, 45 min): 72.7 µM | Concentration of unsubstituted ATP ([1]; ligase buffer pH 7.5, 80 min): 182.2 µM

Double OXT12: TACTATGGTCCACACAACTATTG(OXT)C (OXT)T (DNA dTdAdCdTdAdTdGdGdTdCdCdAdCdAdCdAdAdCdTdAdTdTdG[OXT]dC[OXT]dT)
Tm [2]: 66.2 °C | ΔTm (PDE - PTE) [2]: −2.6 °C

Double OXT23: TACTATGGTCCACACAACTATT(OXT)G(OXT)C T (DNA dTdAdCdTdAdTdGdGdTdCdCdAdCdAdCdAdAdCdTdAdTdT[OXT]dG[OXT]dCdT)
Tm [2]: 65.4 °C | ΔTm (PDE - PTE) [2]: −3.5 °C

Single OXT1: TACTATGGTCCACACAACTATTGC (OXT)T (DNA dTdAdCdTdAdTdGdGdTdCdCdAdCdAdCdAdAdCdTdAdTdTdGdC[OXT]dT)
Tm [2]: 67.5 °C | ΔTm (PDE - PTE) [2]: −1.4 °C

Single OXT2: TACTATGGTCCACACAACTATTG(OXT)C T (DNA dTdAdCdTdAdTdGdGdTdCdCdAdCdAdCdAdAdCdTdAdTdTdG[OXT]dCdT)
Tm [2]: 66.6 °C | ΔTm (PDE - PTE) [2]: −2.3 °C

Unsubstituted: TACTATGGTCCACACAACTATTGCT (Table 7 acceptor probe) (DNA TACTATGGTCCACACAACTATTGCT; acceptor probe, label not given here) [reference compound]
Tm [2]: 68.9 °C

unsubstituted acceptor probe: CCCTGTTCCAGCGTCGGTGTTGCGTT (Table 3) (unmodified DNA)
formation of ligation product (Tth DNA ligase; matched template, additionally incubated 1 h at 75° C.): ample formation of ligation product | formation of ligation product (Tth DNA ligase; matched template, room temperature, 1 hr): efficient formation of ligation product | formation of ligation product (Tth DNA ligase; mismatched DNA template, 120 hrs of incubation): a small amount of ligation product was formed | formation of ligation product (Tth DNA ligase; mismatched DNA template, 120 hrs, additionally incubated 1 h at 75° C.): substantial accumulation of ligation product
